Common to all, as to format: binding
In one assay the target is T1, hDAT (Homo sapiens, UniProt Q01959).
T1 construct: expressed in transfected cells; plated whole cells
The assay can be described thus: Human dopamine transporter scintillation proximity assay, competition with [3H]-Vanoxerine. The protocol:
This assay was used to determine the affinity of ligands for the dopamine transporter by competition with [^3H]-Vanoxerine.
Cells were plated four hours prior to experiment by placing approximately 30,000 cells per well (in PBS) on white, opaque Cell-Tak coated 96 well plates. Extra buffer was apriated from the cell plates using an ELx405 plate washer.
Compounds of the invention were diluted from 10 mM to 0.1 nM FAC (10 point curves, whole log/half log dilutions) via a Beckman Biomek 2000 using a 10-point dilution protocol. The mixtures were allowed to stand at room temperature for 30 minutes, and were then counted on a Packard TopCount LCS, a generic SPA counting protocol settings, Count Time (min.): 0.40, Background Subtract: none, Half-Life Correction: none, Quench Indicator: tSIS, Platemap blank subtraction: none, Cross talk reduction: Off).
The % inhibition was calculated for each compound tested [(Compound CPM at maximum concentration-Non-Specific CPM)/Total CPM*100].
(§1) where max=total binding, min=non specific binding, x=concentration (M) of the tested compound and n=Hill slope. The inhibition dissociation constant (Ki) of each compound was determined according to the method of Cheng-Prusoff and then converted into negative logarithm (pKi) of the Ki.
A general note: Scintillation proximity formats need no separation of bound from free tracer.

The target of another assay is T2, hNET transporter (Homo sapiens, UniProt P23975).
T2 construct: expressed in transfected cells; membranes prepared
The assay can be described thus: Human norepinephrine transporter (hNET) scintillation proximity assay, competition with [3H]-Nisoxetine. As to the method: This assay was used to determine the affinity of ligands for the hNET transporter by competition with [^3H]-Nisoxetine. As in the hSERT assay of the above example, receptor-containing membranes were pre-coupled to the SPA beads and the binding of the appropriate radioligand to the transporter was measured. The light emission was proportional to the amount of bound radioligand, with unbound radioligand producing no signal.
HEK-293 cells (Tatsumi et al., Eur. J. Pharmacol. 1997, 30, 249-258) stably expressing recombinant hNET (Clone: HEK-hNET #2) were maintained with media (DMEM hi glucose with 10% FBS, 300 μg/ml G418 and 2 mM L-Glutamine) and incubated at 37° C. with 5% CO2. Cells were released from culture flasks using PBS for 1-2 minutes. The cells were subsequently centrifuged at 1000 g's for 5 minutes and resuspended in PBS prior to being used in the membrane preparation.
(§2) Cell membranes were prepared using a membrane preparation buffer of 50 mM TRIS (pH 7.4). Cell membranes were prepared from a single cube (7.5×10^9cells total). Cells were homogenized using a Polytron (setting medium for a 4 second burst). The homogenate was then centrifuged at 48,000×g for 15 minutes, the supernatant subsequently removed and discarded, and the pellet resuspended with fresh buffer. After a second centrifugation, the pellet was re-homogenized and brought to a final volume determined during the assay. Typically, membrane portions were aliquoted in 3-6 mg/mil (w:v). and stored at −80° C.
^3[H] […] Compounds of the invention were diluted from 10 mM to 0.1 nM FAC (10 point curves, whole log /half log dilutions) via a Beckman Biomek 2000 using a serial dilution protocol. The test compounds were then transferred (20 μl/well) and the radioligand was added at 50 μl/well. Membrane and beads were prepared to a ratio of 10 μg: 0.7 mg, with 0.7 mg PVT-WGA Amersham beads (Cat# RPQ0282V) added per well. 130 μl of the membrane: bead mixture was added to the assay plate. The mixtures were allowed to stand at room temperature for one hour, and were then counted on a Packard TopCount LCS, a generic SPA counting protocol settings (Energy Range: Low, Efficiency Mode: Normal, Region A: 1.50-35.00, Region B: 1.50-256.00, Count Time (min.): 0.40, Background Subtract: none, Half-Life Correction: no, Quench Indicator: tSIS, Platemap blank subtraction: No, Cross talk reduction: Off).
The % inhibition was calculated for each compound tested [(Compound CPM at maximum concentration-Non-Specific CPM)/Total CPM*100]. The concentration producing 50% inhibition (IC50) was determined using an iterative non-linear curve fitting technique with Activity Base/Xlfit using the following equation:
as §1

The next assay concerns the target T3, hSERT transporter (Homo sapiens, UniProt P31645).
T3 construct: expressed in transfected cells; membranes prepared
The assay can be described thus: Human serotonin transporter (hSERT) scintillation proximity assay, competition with [3H]-Citalopram.
Description: Screening for Human Serotonin Transporter (hSERT) Antagonists Using a Scintillation Proximity Assay (SPA)
The screening assay of this example was used to determine the affinity of ligands at the hSERT transporter by competition with [^3H]-Citalopram.
Scintillation Proximity Assay (SPA) works by bringing radioligand within close proximity to the bead's scintillant to stimulate light emission. In this assay, the receptor-containing membranes were pre-coupled to the SPA beads and the binding of the appropriate radioligand to the transporter was measured. The light emission was proportional to the amount of bound radioligand. Unbound radioligand produced no signal as a result of distant proximity to scintillant (lack of energy transfer).
Cells are released from culture flasks using PBS for 1-2 minutes. The cells were subsequently centrifuged at 1000 g's for 5 minutes and resuspended in PBS prior to being used in the membrane preparation.
as §2, with “(7.5×10^9 cells” for “(7.5×10^9cells”, “3 mg/ml” for “3-6 mg/mil”
Compounds of the invention were diluted from 10 mM to 0.1 nM FAC (10 point curves, whole log/half log dilutions) via a Beckman Biomek 2000 using a serial dilution protocol. The test compounds were then transferred (20 μl/well) and the [^3H]-Citalopram radioligand was added at 50 μl/well. Membrane and beads were prepared to a ratio of 10 μg: 0.7 mg, with 0.7 mg PVT-WGA Amersham beads (Cat# RPQ0282V) added per well. 130 μl of the membrane: bead mixture was added to the assay plate.
The % inhibition was calculated for each compound tested [(Compound counts per minute (CPM) at maximum concentration-Non-Specific CPM)/Total CPM*100].
as §1

The mark [1] stands for this setting: Table 1, read-out: pIC50 NET (converted).
[2] abbreviates: Table 1, read-out: pIC50 DAT (converted).
[3] abbreviates: Table 1, read-out: pIC50 SERT (converted).

Read-outs that look alike come from different tables or passages of the source.

T2 sequence (P23975 whole entry): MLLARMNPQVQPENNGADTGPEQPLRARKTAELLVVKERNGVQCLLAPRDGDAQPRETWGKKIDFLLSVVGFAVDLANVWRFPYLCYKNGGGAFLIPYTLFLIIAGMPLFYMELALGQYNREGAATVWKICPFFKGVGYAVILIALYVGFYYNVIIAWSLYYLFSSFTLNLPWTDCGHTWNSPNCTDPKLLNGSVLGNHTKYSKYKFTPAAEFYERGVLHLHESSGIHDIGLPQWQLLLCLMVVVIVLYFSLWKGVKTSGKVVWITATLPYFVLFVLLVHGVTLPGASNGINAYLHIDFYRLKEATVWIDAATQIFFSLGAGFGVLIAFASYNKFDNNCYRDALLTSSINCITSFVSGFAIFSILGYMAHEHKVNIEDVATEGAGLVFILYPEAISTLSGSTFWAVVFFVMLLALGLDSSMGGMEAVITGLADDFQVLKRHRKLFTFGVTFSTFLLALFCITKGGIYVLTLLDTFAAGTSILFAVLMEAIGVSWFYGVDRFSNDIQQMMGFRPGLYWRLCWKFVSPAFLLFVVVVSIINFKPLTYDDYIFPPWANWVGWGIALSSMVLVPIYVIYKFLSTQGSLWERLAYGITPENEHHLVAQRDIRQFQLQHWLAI
T3 sequence (P31645 whole entry): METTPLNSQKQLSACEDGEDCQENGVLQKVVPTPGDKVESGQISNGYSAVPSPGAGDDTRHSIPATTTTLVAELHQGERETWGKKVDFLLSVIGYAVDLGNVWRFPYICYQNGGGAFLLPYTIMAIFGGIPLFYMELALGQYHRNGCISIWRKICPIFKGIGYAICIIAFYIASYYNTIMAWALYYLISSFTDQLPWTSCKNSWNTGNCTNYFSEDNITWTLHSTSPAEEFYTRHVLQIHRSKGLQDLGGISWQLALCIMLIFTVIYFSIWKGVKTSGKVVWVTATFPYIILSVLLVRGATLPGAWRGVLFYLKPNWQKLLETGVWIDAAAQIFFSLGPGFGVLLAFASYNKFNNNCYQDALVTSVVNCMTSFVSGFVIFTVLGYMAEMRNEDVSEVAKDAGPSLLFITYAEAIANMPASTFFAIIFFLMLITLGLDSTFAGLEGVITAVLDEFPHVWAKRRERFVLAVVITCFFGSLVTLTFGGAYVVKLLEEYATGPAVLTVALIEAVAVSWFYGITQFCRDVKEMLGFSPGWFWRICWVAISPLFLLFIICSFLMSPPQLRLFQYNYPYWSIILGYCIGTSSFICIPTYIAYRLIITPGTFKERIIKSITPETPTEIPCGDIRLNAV
T1 sequence (Q01959 whole entry): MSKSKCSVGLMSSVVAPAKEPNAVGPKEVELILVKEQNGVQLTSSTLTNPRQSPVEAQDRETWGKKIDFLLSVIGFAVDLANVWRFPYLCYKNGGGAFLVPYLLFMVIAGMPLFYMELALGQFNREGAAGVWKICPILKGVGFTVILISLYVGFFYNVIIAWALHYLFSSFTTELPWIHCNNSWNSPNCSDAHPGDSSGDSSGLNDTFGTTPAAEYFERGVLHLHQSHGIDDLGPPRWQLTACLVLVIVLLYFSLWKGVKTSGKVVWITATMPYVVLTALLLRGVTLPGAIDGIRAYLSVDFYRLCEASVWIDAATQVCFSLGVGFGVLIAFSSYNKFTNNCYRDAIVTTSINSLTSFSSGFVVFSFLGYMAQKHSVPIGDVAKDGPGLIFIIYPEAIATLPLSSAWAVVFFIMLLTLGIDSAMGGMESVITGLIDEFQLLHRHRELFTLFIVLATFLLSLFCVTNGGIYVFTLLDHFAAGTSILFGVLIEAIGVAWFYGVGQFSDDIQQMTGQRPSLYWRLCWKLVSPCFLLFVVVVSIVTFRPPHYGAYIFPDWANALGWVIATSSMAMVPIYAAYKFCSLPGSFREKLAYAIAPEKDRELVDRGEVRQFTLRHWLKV

Regarding `CC(C)(C)CC[C@@]1(C(=O)c2cc(F)c(N)c(Cl)c2)CCNC1` [Compound 26, (4-Amino-3-chloro-5-fluoro-phenyl)-[(R)-3-(3,3-dimethyl-butyl)-pyrrolidin-3-yl]-methanone], the IC50 was 26.9 nM at hDAT, 25.1 nM on hNET transporter (setting [1]) and 75.9 nM at hSERT transporter.

In the case of `CC(C)C[C@@]1(C(=O)c2ccc(N)c(Cl)c2)CCNC1` [Compound 27, (4-Amino-3-chloro-phenyl)-((R)-3-isobutyl-pyrrolidin-3-yl)-methanone], the IC50 is 174 nM at hDAT (setting [2]), 55 nM at hNET transporter and 8.32 nM on hSERT transporter.

`CC(C)C[C@]1(C(=O)c2ccc(N)c(Cl)c2)CCNC1` [Compound 28, (4-Amino-3-chloro-phenyl)-((S)-3-isobutyl-pyrrolidin-3-yl)-methanone]: the IC50 at hDAT was 0.832 nM; on hNET transporter (setting [1]), 3.02 nM; on hSERT transporter, 0.117 nM.

Turning to `CC(C)CC1(C(=O)c2ccc(Cl)c(Oc3ccccc3)c2)CCNC1` (stereo not drawn) [Compound 31, (4-Chloro-3-phenoxy-phenyl)-(3-isobutyl-pyrrolidin-3-yl)-methanone], the IC50 on hDAT is 26.3 nM; at hNET transporter (setting [1]), 1.91 nM; on hSERT transporter, 3.72 nM.

`CCCC1(C(=O)c2ccc(Cl)c(Oc3ccc(C(F)(F)F)cc3)c2)CCNC1` (stereo not drawn) [Compound 32, [4-Chloro-3-(4-trifluoromethyl-phenoxy)-phenyl]-(3-propyl-pyrrolidin-3-yl)-methanone]: the IC50 was 331 nM on hDAT (setting [2]), 200 nM at hNET transporter (setting [1]) and 166 nM on hSERT transporter (setting [3]).

Take `CC1(CC2(C(=O)c3ccc(Cl)c(Cl)c3)CCNCC2)CC1` [Compound 34, (3,4-Dichloro-phenyl)-[4-(1-methyl-cyclopropylmethyl)-piperidin-4-yl]-methanone]: the values for the IC50 at hDAT (setting [2]), on hNET transporter (setting [1]) and on hSERT transporter (setting [3]) were 2.24 nM, 66.1 nM and 0.501 nM, respectively.

Consider `Cc1ccc(C(=O)C2(CC(C)C)CCNCC2)cc1Cl` [Compound 35, (3-Chloro-4-methyl-phenyl)-(4-isobutyl-piperidin-4-yl)-methanone], for which the IC50 on hDAT (setting [2]) is 10.5 nM; on hNET transporter (setting [1]) it was 45.7 nM; at hSERT transporter (setting [3]), 0.589 nM.

Turning to `CCCC1(C(=O)c2ccc3ccccc3c2)CCNCC1` [Compound 36, Naphthalen-2-yl-(4-propyl-piperidin-4-yl)-methanone], the IC50 on hDAT is 9.12 nM; at hNET transporter (setting [1]), 15.8 nM; at hSERT transporter, 0.102 nM.

Turning to `COC(C)(C)CC1(C(=O)c2ccc(Cl)c(Cl)c2)CCNCC1` [Compound 37, (3,4-Dichloro-phenyl)-[4-(2-methoxy-2-methyl-propyl)-piperidin-4-yl]-methanone], the IC50 is 4.79 nM on hDAT (setting [2]), 105 nM on hNET transporter (setting [1]) and 1.12 nM at hSERT transporter (setting [3]).

Take `Cc1ccc(C(=O)C2(CCC(C)C)CCNCC2)cc1Cl` [Compound 38, (3-Chloro-4-methyl-phenyl)-[4-(3-methyl-butyl)-piperidin-4-yl]-methanone]: the results for the IC50 at hDAT (setting [2]), on hNET transporter (setting [1]) and at hSERT transporter (setting [3]) were 14.8 nM, 135 nM and 3.47 nM, respectively.

Consider `O=C(c1ccc(Cl)c(Cl)c1)C1(CC2CCCC2)CCNCC1` [Compound 39, (4-Cyclopentylmethyl-piperidin-4-yl)-(3,4-dichloro-phenyl)-methanone], for which the IC50 was 3.16 nM on hDAT (setting [2]), 41.7 nM at hNET transporter (setting [1]) and 1.48 nM at hSERT transporter (setting [3]).

`CCCC1(C(=O)c2ccc(Cl)cc2Oc2ccccc2)CCNCC1` [Compound 40, (4-Chloro-2-phenoxy-phenyl)-(4-propyl-piperidin-4-yl)-methanone]: the IC50 was 1480 nM at hDAT (setting [2]), 27.5 nM at hNET transporter (setting [1]) and 69.2 nM on hSERT transporter (setting [3]).

In the case of `O=C(c1ccc(Cl)c(Cl)c1)C1(CC2CCOCC2)CCNCC1` [Compound 41, (3,4-Dichloro-phenyl)-[4-(tetrahydro-pyran-4-ylmethyl)-piperidin-4-yl]-methanone], the IC50 was 7.94 nM at hDAT (setting [2]), 209 nM at hNET transporter (setting [1]) and 1.15 nM on hSERT transporter (setting [3]).

With `O=C(c1ccc(Cl)c(Cl)c1)C1(CC2CCCO2)CCNCC1` (stereo not drawn) [Compound 42, (3,4-Dichloro-phenyl)-[4-(tetrahydro-furan-2-ylmethyl)-piperidin-4-yl]-methanone], the values for the IC50 at hDAT, on hNET transporter (setting [1]) and on hSERT transporter were 3.63 nM, 47.9 nM and 1 nM, respectively.

Take `O=C(c1ccccc1)C1(Cc2ccc(Cl)c(Cl)c2)CCNCC1` [Compound 43, [4-(3,4-Dichloro-benzyl)-piperidin-4-yl]-phenyl-methanone]: the IC50 was 575 nM at hDAT (setting [2]), 1510 nM at hNET transporter (setting [1]) and 75.9 nM at hSERT transporter.

Take `CNc1ccc(C(=O)C2(CC(C)C)CCNCC2)cc1Cl` [Compound 44, (3-Chloro-4-methylamino-phenyl)-(4-isobutyl-piperidin-4-yl)-methanone]: the results for the IC50 at hDAT, on hNET transporter (setting [1]) and on hSERT transporter were 57.5 nM, 51.3 nM and 0.724 nM, respectively.

For `CC(C)CC1(C(=O)c2ccc(Cl)c(Oc3ccccc3)c2)CCNCC1` [Compound 45, (4-Chloro-3-phenoxy-phenyl)-(4-isobutyl-piperidin-4-yl)-methanone], the IC50 at hDAT (setting [2]) is 34.7 nM; at hNET transporter (setting [1]), 2.57 nM; at hSERT transporter (setting [3]), 2.4 nM.

With `CCCC1(C(=O)c2ccc(Cl)c(Oc3ccccc3)c2)CCNCC1` [Compound 46, (4-Chloro-3-phenoxy-phenyl)-(4-propyl-piperidin-4-yl)-methanone], the IC50 on hDAT (setting [2]) is 30.2 nM; at hNET transporter (setting [1]), 11.5 nM; at hSERT transporter (setting [3]), 7.08 nM.

With `CC(C)C[C@@]1(C(=O)c2ccc(Cl)c(Cl)c2)CC[C@@H]2CC[C@H]1N2` [Compound 47, (3,4-Dichloro-phenyl)-((1R,2S,5R)-2-isobutyl-8-aza-bicyclo[3.2.1]oct-2-yl)-methanone], the IC50 on hDAT is 24 nM; at hNET transporter (setting [1]), 200 nM; on hSERT transporter it was 7.94 nM.
